Laboratory results reported in ChEMBL document CHEMBL4828727, “Antibacterial and antitumoral properties of 1,2,3-triazolo fused triterpenes and their mechanism of inhibiting the proliferation of HL-60 cells” (Eur J Med Chem, 2021).
Converted amounts (≈) assume the structure as drawn. The source made the active and inactive calls. The calls are words filed in the database; no cut-off is given here.

Tests used:
HCT-116 = assay: Antiproliferative activity against human HCT-116 cells assessed as inhibition of cell viability measured after 72 hrs by colorimetric MTS viability assay; assay type: functional, cell-based; settings: HCT-116, 72 h
[1] = Antiproliferative activity against human HAP1 cells assessed as inhibition of cell viability measured after 72 hrs by colorimetric MTS viability assay; assay type: functional, cell-based; settings: HAP1, 72 h
CAPAN-1 = assay: cells; assay type: functional, cell-based; settings: Homo sapiens, CAPAN-1, 72 h
Description: Antiproliferative activity against human CAPAN-1 cells assessed as inhibition of cell viability measured after 72 hrs by colorimetric MTS viability assay

NCI-H460 = assay: cells; assay type: functional, cell-based; settings: Homo sapiens, NCI-H460, 72 h
Description: Antiproliferative activity against human NCI-H460 cells assessed as inhibition of cell viability measured after 72 hrs by colorimetric MTS viability assay

[2] = Antiproliferative activity against human DND41 cells assessed as inhibition of cell viability measured after 72 hrs by real-time IncuCyte proliferation analysis; assay type: functional, cell-based; settings: DND41, 72 h
MV4-11 = assay: cells; assay type: functional, cell-based; settings: Homo sapiens, MV4-11, 72 h
Description: Cytotoxicity against human MV4-11cells assessed as inhibition of cell viability measured after 72 hrs by real-time IncuCyte proliferation analysis

LN-229 = assay: Antiproliferative activity against human LN-229 cells assessed as inhibition of cell viability measured after 72 hrs by colorimetric MTS viability assay; assay type: functional, cell-based; settings: LN-229, 72 h
Listeria innocua = assay: Antibacterial activity against Listeria innocua LMG11387 assessed as growth inhibition after 20 hrs by broth microdilution method; assay type: functional
HL-60 = assay: cells; assay type: functional, cell-based; settings: Homo sapiens, HL-60, 72 h
Description: Antiproliferative activity against human HL-60 cells assessed as inhibition of cell viability measured after 72 hrs by real-time IncuCyte proliferation analysis

Staphylococcus aureus = assay: Antibacterial activity against Staphylococcus aureus ATCC65385 assessed as growth inhibition after 20 hrs by broth microdilution method; assay type: functional
K562 = assay: cells; assay type: functional, cell-based; settings: Homo sapiens, K562, 72 h
Description: Antiproliferative activity against human K562 cells assessed as inhibition of cell viability measured after 72 hrs by real-time IncuCyte proliferation analysis

Escherichia coli = assay: Antibacterial activity against Escherichia coli ATCC47076 assessed as growth inhibition after 20 hrs by broth microdilution method; assay type: functional
Z-138 = assay: cells; assay type: functional, cell-based; settings: Homo sapiens, Z-138, 72 h
Description: Antiproliferative activity against human Z138 cells assessed as inhibition of cell viability measured after 72 hrs by real-time IncuCyte proliferation analysis

Jurkat = assay: cells; assay type: functional, cell-based; settings: Homo sapiens, 72 h
Description: Cytotoxicity against human Jurkat cells assessed as inhibition of cell viability measured after 72 hrs by real-time IncuCyte proliferation analysis

Rec1 = assay: cells; assay type: functional, cell-based; settings: Homo sapiens, Rec1, 72 h
Description: Cytotoxicity against human REC1 cells assessed as inhibition of cell viability measured after 72 hrs by real-time IncuCyte proliferation analysis

[3] = tested on: Salmonella enterica subsp. enterica; assay: Antibacterial activity against Salmonella enterica subsp.enterica ATCC13076 assessed as growth inhibition after 20 hrs by broth microdilution method; assay type: functional

| IC50 (HCT-116) | IC50 (CAPAN-1) | IC50 (NCI-H460) | IC50 (MV4-11) | MIC50 (Listeria innocua) | IC50 (HL-60) | MIC50 (Staphylococcus aureus) | IC50 (K562) | MIC50 (Escherichia coli) | IC50 (Z-138) | IC50 (Jurkat) | IC50 (Rec1) | MIC50 [3] | Compound | IC50 [1] | IC50 [2] | IC50 (LN-229) |
| --- | --- | --- | --- | --- | --- | --- | --- | --- | --- | --- | --- | --- | --- | --- | --- | --- |
| > 100 µM | > 100 µM | > 100 µM |  | 195 µg/mL (≈ 328 µM) | > 100 µM | 233 µg/mL (≈ 392 µM) | > 100 µM | 84.7 µg/mL (≈ 142 µM) | > 100 µM |  |  | 43 µg/mL (≈ 72.3 µM) | C=C(C)[C@@H]1CC[C@]2(CO)CC[C@]3(C)[C@H](CC[C@@H]4[C@@]5(C)Cc6nnn(Cc7ccc8cc[nH]c8c7)c6C(C)(C)[C@@H]5CC[C@]43C)[C@@H]12 | > 100 µM | > 100 µM | > 100 µM |
| > 100 µM | > 100 µM | > 100 µM |  | inactive | > 100 µM | inactive | > 100 µM | > 20.9 µg/mL | > 100 µM |  |  | 16.6 µg/mL (≈ 27.3 µM) | C=C(C)[C@@H]1CC[C@]2(CO)CC[C@]3(C)[C@H](CC[C@@H]4[C@@]5(C)Cc6nnn(CCc7c[nH]c8ccccc78)c6C(C)(C)[C@@H]5CC[C@]43C)[C@@H]12 | > 100 µM | > 100 µM | > 100 µM |
| > 100 µM | > 100 µM | > 100 µM |  | inactive | > 100 µM | inactive | > 100 µM | 56.7 µg/mL (≈ 98.8 µM) | > 100 µM |  |  | 48.1 µg/mL (≈ 83.8 µM) | C=C(C)[C@@H]1CC[C@]2(CO)CC[C@]3(C)[C@H](CC[C@@H]4[C@@]5(C)Cc6nnn(Cc7ccc(F)cc7)c6C(C)(C)[C@@H]5CC[C@]43C)[C@@H]12 | 10.3 µM | > 100 µM | > 100 µM |
| > 100 µM | > 100 µM | > 100 µM |  | 187 µg/mL (≈ 315 µM) | > 100 µM | 345 µg/mL (≈ 580 µM) | > 100 µM | 96.3 µg/mL (≈ 162 µM) | > 100 µM |  |  | 62 µg/mL (≈ 104 µM) | C=C(C)[C@@H]1CC[C@]2(CO)CC[C@]3(C)[C@H](CC[C@@H]4[C@@]5(C)Cc6nnn(Cc7ccc8[nH]ccc8c7)c6C(C)(C)[C@@H]5CC[C@]43C)[C@@H]12 | > 100 µM | > 100 µM | > 100 µM |
| > 100 µM | > 100 µM | > 100 µM |  | 379 µg/mL (≈ 636 µM) | > 100 µM | inactive | > 100 µM | 99.8 µg/mL (≈ 168 µM) | > 100 µM |  |  | 55.5 µg/mL (≈ 93.3 µM) | C=C(C)[C@@H]1CC[C@]2(CO)CC[C@]3(C)[C@H](CC[C@@H]4[C@@]5(C)Cc6nnn(Cc7cccc8[nH]ccc78)c6C(C)(C)[C@@H]5CC[C@]43C)[C@@H]12 | > 100 µM | > 100 µM | > 100 µM |
| > 100 µM | > 100 µM | > 100 µM |  | inactive | > 100 µM | inactive | > 100 µM | 70.6 µg/mL (≈ 121 µM) | > 100 µM |  |  | 32.3 µg/mL (≈ 55.1 µM) | C=C(C)[C@@H]1CC[C@]2(CO)CC[C@]3(C)[C@H](CC[C@@H]4[C@@]5(C)Cc6nnn(Cc7ccc(OC)cc7)c6C(C)(C)[C@@H]5CC[C@]43C)[C@@H]12 | > 100 µM | > 100 µM | > 100 µM |

Further lines, the compound ahead of its results:

| Compound | IC50 (HCT-116) | IC50 (CAPAN-1) | IC50 (NCI-H460) | IC50 (MV4-11) | MIC50 (Listeria innocua) | IC50 (HL-60) | MIC50 (Staphylococcus aureus) | IC50 (K562) | MIC50 (Escherichia coli) | IC50 (Z-138) | IC50 (Jurkat) | IC50 (Rec1) | MIC50 [3] | IC50 [1] | IC50 [2] | IC50 (LN-229) |
| --- | --- | --- | --- | --- | --- | --- | --- | --- | --- | --- | --- | --- | --- | --- | --- | --- |
| C[C@H]1[C@H](C)CC[C@]2(C(=O)O)CC[C@]3(C)C(=CC[C@@H]4[C@@]5(C)Cc6nnn(Cc7cccc8[nH]ccc78)c6C(C)(C)[C@@H]5CC[C@]43C)[C@H]12 | 15.6 µM | 3.6 µM | 9.2 µM | 14.1 µM | 51.3 µg/mL (≈ 84.2 µM) | 2.7 µM | 23.1 µg/mL (≈ 38 µM) | > 100 µM | 409 µg/mL (≈ 672 µM) | 10.1 µM | 4.1 µM | 2.8 µM | inactive | 8.8 µM | 10.1 µM | 63.5 µM |
| CC1(C)CC[C@]2(C(=O)O)CC[C@]3(C)C(=CC[C@@H]4[C@@]5(C)Cc6nnn(Cc7ccc8cc[nH]c8c7)c6C(C)(C)[C@@H]5CC[C@]43C)[C@@H]2C1 | 11 µM | 9.4 µM | > 100 µM | 21.5 µM | 90 µg/mL (≈ 148 µM) | 3.3 µM | 199 µg/mL (≈ 327 µM) | 69.2 µM | 40.8 µg/mL (≈ 67.1 µM) | 67.4 µM | 2.2 µM | 1.8 µM | 29 µg/mL (≈ 47.6 µM) | 9.2 µM | > 100 µM | 44.4 µM |
| C=C(C)[C@@H]1CC[C@]2(CO)CC[C@]3(C)[C@H](CC[C@@H]4[C@@]5(C)CC[C@H](O)C(C)(C)[C@@H]5CC[C@]43C)[C@@H]12 [BETULIN] | > 100 µM | > 100 µM | > 100 µM |  | 398 µg/mL (≈ 899 µM) | > 100 µM | 248 µg/mL (≈ 559 µM) | > 100 µM | inactive | > 100 µM |  |  | inactive | > 100 µM | > 100 µM | > 100 µM |
| CC1(C)CC[C@]2(C(=O)O)CC[C@]3(C)C(=CC[C@@H]4[C@@]5(C)Cc6nnn(Cc7ccc(Cl)cc7)c6C(C)(C)[C@@H]5CC[C@]43C)[C@@H]2C1 | 63.8 µM | 25.8 µM | > 100 µM |  | 367 µg/mL (≈ 608 µM) | 56 µM | 180 µg/mL (≈ 298 µM) | > 100 µM | 34.3 µg/mL (≈ 56.7 µM) | 61.5 µM |  |  | 25.2 µg/mL (≈ 41.8 µM) | > 100 µM | 64.3 µM | 67.1 µM |
| CC1(C)CC[C@]2(C(=O)O)CC[C@]3(C)C(=CC[C@@H]4[C@@]5(C)Cc6nnn(Cc7cccc8[nH]ccc78)c6C(C)(C)[C@@H]5CC[C@]43C)[C@@H]2C1 | 12.6 µM | 6.7 µM | 10.6 µM | 22.1 µM | 237 µg/mL (≈ 390 µM) | 9.7 µM | 180 µg/mL (≈ 296 µM) | 68.2 µM | 95.8 µg/mL (≈ 157 µM) | 9.9 µM | 5.3 µM | 2.6 µM | 88.7 µg/mL (≈ 146 µM) | 9.7 µM | 11 µM | 47.2 µM |
| O=C(O)c1cn(C2CC2)c2cc(N3CCNCC3)c(F)cc2c1=O [CIPROFLOXACIN] |  |  |  |  | 138 µg/mL (≈ 416 µM) |  | 3.41 µg/mL (≈ 10.3 µM) |  |  |  |  |  | 0.37 µg/mL (≈ 1.12 µM) |  |  |  |
| C=C(C)[C@@H]1CC[C@]2(CO)CC[C@]3(C)[C@H](CC[C@@H]4[C@@]5(C)Cc6nnn(CCc7c[nH]c8ccc(OC)cc78)c6C(C)(C)[C@@H]5CC[C@]43C)[C@@H]12 | > 100 µM | > 100 µM | > 100 µM |  | 429 µg/mL (≈ 672 µM) | > 100 µM | inactive | > 100 µM | 17.7 µg/mL (≈ 27.7 µM) | > 100 µM |  |  | 17.3 µg/mL (≈ 27 µM) | > 100 µM | > 100 µM | > 100 µM |
| C[C@H]1[C@H](C)CC[C@]2(C(=O)O)CC[C@]3(C)C(=CC[C@@H]4[C@@]5(C)Cc6nnn(CCc7c[nH]c8ccccc78)c6C(C)(C)[C@@H]5CC[C@]43C)[C@H]12 | 10.8 µM | 4.6 µM | 8.8 µM | 9.9 µM | 118 µg/mL (≈ 189 µM) | 5.5 µM | 132 µg/mL (≈ 212 µM) | 65.9 µM | inactive | 12.2 µM | 3.8 µM | 2.5 µM | inactive | 6.3 µM | 9 µM | 35.1 µM |
| CC1(C)CC[C@]2(C(=O)O)CC[C@]3(C)C(=CC[C@@H]4[C@@]5(C)CC[C@H](O)C(C)(C)[C@@H]5CC[C@]43C)[C@@H]2C1 [OLEANOLIC_ACID] | 32.4 µM | 50.1 µM | > 100 µM |  | 21.4 µg/mL (≈ 46.7 µM) | 36.4 µM | 1.16 µg/mL (≈ 2.54 µM) | > 100 µM | 392 µg/mL (≈ 859 µM) | > 100 µM |  |  | inactive | > 100 µM | 65.5 µM | > 100 µM |
| C[C@H]1[C@H](C)CC[C@]2(C(=O)O)CC[C@]3(C)C(=CC[C@@H]4[C@@]5(C)CC[C@H](O)C(C)(C)[C@@H]5CC[C@]43C)[C@H]12 [URSOLIC ACID] | 17.7 µM | 8.6 µM | 16.2 µM |  | 27 µg/mL (≈ 59.2 µM) | 9.5 µM | 1.56 µg/mL (≈ 3.42 µM) | 10.2 µM | inactive | 9.8 µM |  |  | inactive | 71.1 µM | 13.7 µM | 47.4 µM |
| CN[C@@H]1C[C@H]2O[C@@](C)([C@@H]1OC)n1c3ccccc3c3c4c(c5c6ccccc6n2c5c31)C(=O)NC4 [STAUROSPORINE] | 0.0481 µM |  |  |  |  |  |  |  |  |  |  |  |  | 0.0491 µM | 0.0308 µM | 0.0097 µM |
